Patent US11813277B2, “Methods and agents for modulating inflammation” (The Regents of the University of California, priority 2018, dated 2023)

Experiments:
[1] = system: M(IL-4) polarization of BMDMs; experiment: Flow cytometry of IL-4-associated cell surface markers in BMDMs; format: cell-based, mouse
Method: For all gene expression and flow cytometry experiments described below, day 6 BMDM were plated at 3×10^5 cell/well in 12-well plates. The next day, cells were treated with appropriate compounds (and duration as indicated in figures and below) in DMEM supplemented with 5% FBS, 2 mM L-glutamine, 100 units/mL, 100 μg/mL penicillin/streptomycin, 500 μM of sodium pyruvate and 5% v/v conditioned media containing macrophage colony stimulating factor (M-CSF).
For flow cytometry experiments involving etomoxir (FIG. 1G, FIG. 2A, FIG. 2D, FIG. 3A, FIG. 3B, FIG. 3G, FIG. 3H): BMDMs were mock-treated (media replacement only) or treated with 20 ng/mL of IL-4±3 μM or 200 μM of etomoxir for 48 hr. When measuring expression of M(IL-4)-associated genes in response to etomoxir (FIG. 1H, FIG. 2B), BMDMs were mock-treated or treated with 20 ng/mL of IL4±etomoxir as indicated for 24 hr.
For experiments involving respiratory chain inhibitors: BMDMs were mock-treated (media replacement only) or treated with 20 ng/mL of IL4±1.2 μM oligomycin (Oligo), 200 nM rotenone (Rot), 200 nM antimycin A (AntiA), 100 nM piericidin A (PierA), or 5 μM carboxyatractylate (CAT) for either 24 (FIG. 4G, FIG. 4H, FIG. 6G) or 48 hr (FIG. 4F, FIG. 7D). All inhibitors were given as co-treatments simultaneously with IL-4.
For experiments involving CoA supplementation (FIG. 10A, FIG. 10B, FIG. 10C, FIG. 10D, FIG. 10E, FIG. 9C, FIG. 9D): BMDMs were mock-treated (media replacement only) or treated with 20 ng/mL of IL4±etomoxir (concentration indicated in figures)±CoA (concentration indicated in figures) for 48 hr. Etomoxir and CoA were given as co-treatments simultaneously with IL-4.
Prior to FACS analysis, BMDMs were detached using 350 μL of Accutase, followed by two washes with FACS buffer (PBS+1% (v/v) BSA+0.05% (w/v) sodium azide). Anti-mouse CD16/32 antibody was used at a dilution of 1:500, while all other antibodies were used at a dilution of 1:250. All flow cytometry data were captured using BD FACSVerse flow cytometer and analyzed using the FlowJo X 10.0.7r2 software. In all, 2×104 live events were acquired for each sample (gated on DAPIneg). For analysis, CD206+/CD71+ and CD206+/CD301+ populations were gated based on Fluorescence Minus One (FMO) controls.

[2] = system: phosphate (Pi) transporter; experiment: Phosphate transporter assay (mitochondrial swelling); format: biochemical, rat; conditions: 250 μM etomoxir, 100 μM NEM, 10 μM mersalyl
Method: Phosphate transport was measured by monitoring swelling of de-energized mitochondria in isotonic potassium phosphate medium based upon principles described by Coty, W. A. and Pedersen, P. L. (1975) Phosphate transport in rat liver mitochondria. Kinetics, inhibitor sensitivity, energy requirements, and labeled components. Mol Cell Biochem. 9, 109-24. As the phosphate carrier acts as electroneutral symporter with protons, the process is self-restricting due to generation of an opposing pH gradient. […] In the presence of nigericin, the proton fluxes cycle resulting in electro- and pH-neutral transport of potassium phosphate down its concentration gradient into the mitochondrial matrix, resulting in osmotic accumulation of water. Under these conditions, transport is limited by the activity of phosphate carrier, and can be recorded as mitochondrial swelling (a decrease in light scattering).
The measurements were performed in an LS-50B spectrofluorometer (Perkin-Elmer) at 540 nm. Assay medium contained 125 mM potassium phosphate, pH 7.2, 0.5 mM EGTA, and 2 μM rotenone. Mouse liver mitochondria (0.5 mg/ml) were treated with 250 μM etomoxir, 100 μM N-ethylmaleimide (NEM) (Klingenberg, M., Durand, R., and Guerin, B. (1974) Analysis of the reactivity of SH-reagents with the mitochondrial phosphate carrier. Eur J Biochem, 42, 135-150) or 10 μM mersalyl (Paradies, G. and Ruggiero, F. M. (1991) Effect of aging on the activity of the phosphate carrier and on the lipid composition in rat liver mitochondria. Arch Biochem Biophys. 284, 332-337) and the reaction was started with 5 μM nigericin. Typical traces from 3 experiments are shown. To establish the maximally swollen state of mitochondria, 80 μg/ml alamethicin was used.

respiratory complex I = experiment: Respiration in double-permeabilized HepG2 cells; format: biochemical; conditions: 100 μM etomoxir
Method: When permeabilized cells were treated with alamethicin to form pores of 3-6 kDa in the mitochondrial inner membrane (“double-permeabilized” cells) and complex I-mediated respiration was directly assessed (FIG. 6F), 10 μg/mL alamethicin was added at 37° C. 15 minutes prior to measurements (Divakaruni, A. S., Andreyev, A. Y., Rogers, G. W., and Murphy, A. N. (2017a) In situ measurements of mitochondrial matrix enzyme activities using plasma and mitochondrial membrane permeabilization agents. Anal. Biochem. 17, 30385-8). Double-permeabilized cells were offered 10 μM cytochrome c in the experimental medium and either 10 mM NADH or 10 mM succinate with 2 μM rotenone to drive respiration.

[3] = system: permeabilized HepG2 or A549 cells; experiment: ADP- vs FCCP-stimulated respiration in permeabilized cells, etomoxir added directly; format: cell-based; conditions: high concentrations of etomoxir

`CCOC(=O)[C@@]1(CCCCCCOc2ccc(Cl)cc2)CO1` [etomoxir] was tested, and the “CD206+/CD71+ expression in WT and Cpt1a-/- macrophages” value ([1]; 3 μM etomoxir) was “lack of an effect”, the “expression levels of IL-4-induced CD206, CD71, CD301” value ([1]; 3 μM etomoxir, IL-4 20 ng/mL) was “no effect” and the “CD206+/CD71+ expression in WT and Cpt1a-/- macrophages” value ([1]; 200 μM etomoxir) was “robust block”. The “population of CD206+/CD71+ cells” value ([1]; 200 μM etomoxir, IL-4) was “strongly reduced”, the “population of CD301+ cells” value ([1]; 200 μM etomoxir, IL-4) was “little effect” and the “population of CD206+/CD71+ cells” value ([1]; 500 μM CoA, etomoxir 3-100 μM) was “proportionally decreased”. The “concentration at which significant changes in macrophage polarization were observed” value ([1]; CD206+/CD71+, IL-4) was greater than 100 µM, the “Pi transporter activity (rate of swelling)” value [2] was “does not inhibit” and the “Pi transporter activity (rate of swelling)” value ([2]; listed as Etomoxir) was “does not affect the rate of swelling”. For the same molecule, the “oxidation of NADH” value (respiratory complex I) was “inhibit oxidation of NADH” and the “respiration driven by ADP versus FCCP” value [3] was “greater inhibitory effect on respiration driven by ADP versus FCCP”.
